From US7625713B2, “Process for identifying a ligand that binds to the NEP binding site for the SMR1 pentapeptide” (Institut Pasteur, priority 2000, dated 2009)
Where a SMILES comes first, the peptide text is derived from it.

Test system: male rats
Test: Pin pain test
Format: in vivo, rat
Description: The 3-min test session was performed 5 min after intravenous. rat tail vein administration of sialorphin or its vehicle. Naloxone (0.3 mg per kg body weight) was injected subcutaneously 15 min before sialorphin administration. Time in centre field sector (FIG. 6-C) (central square of the open-field without pin) and activity (FIGS. 6-A and 6-B) in peripheral squares (overlayed with pins) during the 3-min test session. Each value represents the mean±sem of 8 animals per group. […] Control group corresponded to pain response in vehicle-treated rats. 50 μg/kg sialorphin, 100 μg/kg sialorphin, 100 μg/kg sialorphin plus naloxone 0.3 mg/kg.
To extend the insight into the in vivo possible antinociceptive property of sialorphin through enkephalin-degrading enzyme inhibition, its effects were assessed in rat model of pain, i.e. the pin pain test, (Hebert et al. (1999) Physiology & Behavior 67, 99-105) in which the various behavioural parameters of pain responses were recorded with a 3-min cutoff time.
The in vivo activity of sialorphin was tested on the pin pain assay using male rats (350-400 g, Charles Rivers). The experimental device consists in an open-field (45×45×40 cm) which is divided into nine equal squares (150×150 mm), eight of them are peripheral and one is central. The peripheral squares are overlayed with stainless steel pins (2/cm2, length 8 mm and diameter 0.6 mm). The test consisted in placing the rat in the central square of the open-field and recording its different behaviours (cut-off time, 3 min). Two days before the pain test, the rats were familiarised with the experimental device without pins for 20 min, so as to reduce the stress linked to the spatial neophobia. All statistical analyses were carried out using the Statview 5 statistical package.

[1] = 100 μg per kg intravenous, 3-min trial, n=8, mean±sem

N=C(N)NCCC[C@H](NC(=O)[C@@H]1CCCN1C(=O)[C@H](CC(N)=O)NC(=O)[C@H](Cc1c[nH]cn1)NC(=O)[C@@H](N)CCC(N)=O)C(=O)O [sialorphin, Gln-His-Asn-Pro-Arg] (H-QHNPR-OH; N-terminus and C-terminus assumed)
frequency of crossings peripheral squares (100 μg per kg intravenous, 3-min trial 5 min after administration, n=8, mean±sem): 11.13±1.43 | number of audible vocalisation responses [1]: 0.25±0.16 | number of escape responses [1]: 0.13±0.13 | rearings on peripheral squares [1]: 3.88±0.83 | analgesia (100 μg/kg given intravenously): 74-97% | time in the central area of the open-field (sialorphin intravenous alone, second test trial, 3-min test): 57.75 ± 21.30 s
